Legend:
[1] = test system: p53 wild type or p53 mutant cells; assay: Q-RT-PCR of doxorubicin induced p21 and CD80 mRNA; format: cell-based, human; details: set of p53 wild type or p53 mutant cells, FIG. 14
Protocol: Tumors were isolated from Kras^LA2/+; Trp53^LSL/LSL; Rosa26^CreERT2 animals, dissociated with collagenase and trypsin for one hour at 37° C., and then grown in DME plus 10% fetal bovine serum. Human cell lines were obtained from American Type Culture Collection and grown per manufacturer recommendations.
RNA was isolated from cultured cells with Trizol reagent following manufacturer protocol. Complementary DNA was generated from 1 μg total RNA using High Capacity RT-PCR Kit (Roche, quantitative PCR (Q-RT-PCR)) following manufacturer protocol. Total cDNA was diluted 20 fold in H2O and 10 μL was used in a SYBR green quantitative PCR reaction. Specifically, specific primers were diluted from 100 μM stocks to a final concentration of 0.25 μM into JumpStart Ready Taq SYBR green (Sigma) and 10 μL was mixed with 10 μL diluted cDNA and cycled 40 times with the following cycling parameters on a Step One Plus (Applied Biosystems) real-time thermocycler: […]

[2] = test system: CD80 cell surface expression; assay: Flow cytometry of CD80 cell surface expression; format: cell-based, mouse; details: cells untreated, treated with tamoxifen, AdFlpO or AdCre; FIG. 11
Protocol: Tumors were isolated from Kras^LA2/+; Trp53^LSL/LSL; Rosa26^CreERT2 animals, dissociated with collagenase and trypsin for one hour at 37° C., and then grown in DME plus 10% fetal bovine serum. Human cell lines were obtained from American Type Culture Collection and grown per manufacturer recommendations. Cells were harvested from plasticware using 2 mM EDTA solution. Approximately 1 […] cells were resuspended in % FBS in PBS and incubated with APC conjugated CD80 Ab at a 1:100 dilution (Hamster IgG2 Clone:16-10A1 from BD Biosciences). Cells were scanner on a FASCaliber flow cytometer (BD Biosciences).

Row | Structure (SMILES) | induction of p21 as measured by Q-RT-PCR [1] | induction of CD80 as measured by Q-RT-PCR ([1]; induction of human CD80 mirrors p21 induction) | CD80 cell surface expression (flow cytometry histograms) [2]
1 | COc1cccc2c1C(=O)c1c(O)c3c(c(O)c1C2=O)C[C@@](O)(C(=O)CO)C[C@@H]3O[C@H]1C[C@H](N)[C@H](O)[C@H](C)O1 [doxorubicin] | induced | induced | 
2 | CC/C(=C(\c1ccccc1)c1ccc(OCCN(C)C)cc1)c1ccccc1 [tamoxifen] |  |  | not tamoxifen dependent

Reference: patent US9567642B2, “Methods and products related to targeted cancer therapy” (Massachusetts Institute of Technology, priority 2012, dated 2017)
